From the NIST ThermoML archive (doi:10.1016/j.jct.2018.02.010) come the findings set out here.

± gives the expanded uncertainty stated by the source.

The conditions of data set [1]: 298.15 K; for surface tension liquid-gas: Maximal bubble pressure; for mass density: 101.33 kPa, Liquid, Vibrating tube method.
Data set [2] can be described thus: refractive index (Na D-line) (dimensionless). The conditions noted are these: 298.15 K; 101.33 kPa; Liquid; refractometer model RFM 81.
The conditions of data set [3]: 101.3 kPa, Liquid mixture 1, spinning drop method.

As usually defined, the surface tension liquid-gas is the force per length acting along the surface. Usually mass density stands for the mass of a sample divided by its volume. A word on the refractive index: it is the speed of light in vacuum divided by its phase velocity in the sample. Turning to `CCCC(=O)OC` [methyl butanoate], in data set [1], the surface tension liquid-gas worked out at 24.56 ± 0.25 mN/m and the mass density was 892.62 ± 0.72 kg/m3. In data set [2], the refractive index is listed as 1.38486 ± 0.0008.
Take `CCCC(=O)OC` [methyl butanoate] + O: the interfacial tension in data set [3] (278.15 K) was 10.6 ± 0.03 mN/m; in data set [3] (288.15 K) it was 10.9 ± 0.03 mN/m; in data set [3] (298.15 K), 11.1 ± 0.03 mN/m; in data set [3] (308.15 K), 11.1 ± 0.03 mN/m; in data set [3] (318.15 K), 11 ± 0.03 mN/m; in data set [3] (328.15 K), 10.6 ± 0.03 mN/m. For the same compound, the interfacial tension in data set [3] (338.15 K) was 10.05 ± 0.03 mN/m; in data set [3] (348.15 K), 9.4 ± 0.03 mN/m.
For the compound `COC(C)=O` [methyl ethanoate], in data set [1], the surface tension liquid-gas turned out to be 24.93 ± 0.25 mN/m and the mass density worked out at 926.9 ± 0.72 kg/m3. In data set [2], the refractive index was determined as 1.36008 ± 0.0008.
For `COC(C)=O` [methyl ethanoate] + O, the interfacial tension came to 1.86 ± 0.03 mN/m in data set [3] (278.15 K); 1.77 ± 0.03 mN/m in data set [3] (288.15 K); 1.66 ± 0.03 mN/m in data set [3] (298.15 K); 1.49 ± 0.03 mN/m in data set [3] (308.15 K); 1.17 ± 0.03 mN/m in data set [3] (318.15 K); 0.75 ± 0.03 mN/m in data set [3] (328.15 K).
Turning to `CCCCCCC(=O)OC` [methyl heptanoate], in data set [1], the surface tension liquid-gas came out at 26.73 ± 0.26 mN/m and the mass density came to 875.61 ± 0.72 kg/m3. Also, the refractive index in data set [2] stood at 1.41086 ± 0.0008.
Take `CCCCCCC(=O)OC` [methyl heptanoate] + O: the interfacial tension in data set [3] (288.15 K) came to 16 ± 0.03 mN/m; in data set [3] (298.15 K), 16.7 ± 0.03 mN/m; in data set [3] (308.15 K), 17.3 ± 0.04 mN/m; in data set [3] (318.15 K), 17.5 ± 0.04 mN/m; in data set [3] (328.15 K), 17.6 ± 0.04 mN/m; in data set [3] (338.15 K), 17.5 ± 0.04 mN/m. Moreover, the interfacial tension in data set [3] (348.15 K) is reported as 16.9 ± 0.03 mN/m; in data set [3] (358.15 K) it was 15.9 ± 0.03 mN/m.
For `CCCCCC(=O)OC` [methyl hexanoate], in data set [1], the surface tension liquid-gas worked out at 26.01 ± 0.26 mN/m and the mass density is reported as 879.76 ± 0.72 kg/m3. Also, the refractive index in data set [2] was 1.40443 ± 0.0008.
Consider `CCCCCC(=O)OC` [methyl hexanoate] + O, for which the interfacial tension in data set [3] (278.15 K) was 14.6 ± 0.03 mN/m; in data set [3] (288.15 K), 15 ± 0.03 mN/m; in data set [3] (298.15 K), 15.5 ± 0.03 mN/m; in data set [3] (308.15 K), 15.7 ± 0.03 mN/m; in data set [3] (318.15 K), 15.8 ± 0.03 mN/m; in data set [3] (328.15 K), 15.7 ± 0.03 mN/m. In addition, the interfacial tension in data set [3] (338.15 K) turned out to be 15.5 ± 0.03 mN/m; in data set [3] (348.15 K), 15.1 ± 0.03 mN/m; in data set [3] (358.15 K) it was 14.6 ± 0.03 mN/m.
With `COC=O` [methyl methanoate], in data set [1], the surface tension liquid-gas was 24.96 ± 0.25 mN/m and the mass density is listed as 960.85 ± 0.3 kg/m3. Further, in data set [2], the refractive index is reported as 1.34174 ± 0.0008.
As to `COC=O` [methyl methanoate] + O, the values for the interfacial tension in data set [3] (278.15 K) and in data set [3] (288.15 K) were 0.56 ± 0.03 mN/m and 0.77 ± 0.03 mN/m, respectively.
In the case of `CCCCC(=O)OC` [methyl pentanoate], in data set [1], the surface tension liquid-gas worked out at 25.34 ± 0.25 mN/m and the mass density is on record as 885.66 ± 0.72 kg/m3. For the same compound, in data set [2], the refractive index is recorded as 1.39628 ± 0.0008.
In the case of `CCCCC(=O)OC` [methyl pentanoate] + O, the interfacial tension in data set [3] (278.15 K) worked out at 13.6 ± 0.03 mN/m; in data set [3] (288.15 K), 14 ± 0.03 mN/m; in data set [3] (298.15 K) it was 14.1 ± 0.03 mN/m; in data set [3] (308.15 K), 14 ± 0.03 mN/m; in data set [3] (318.15 K), 13.9 ± 0.03 mN/m; in data set [3] (328.15 K), 13.7 ± 0.03 mN/m. The results for the interfacial tension in data set [3] (338.15 K), in data set [3] (348.15 K) and in data set [3] (358.15 K) were 13.5 ± 0.03 mN/m, 13.2 ± 0.03 mN/m and 12.9 ± 0.03 mN/m, respectively.
For `CCC(=O)OC` [methyl propanoate], in data set [1], the surface tension liquid-gas is 24.61 ± 0.25 mN/m and the mass density is listed as 909.3 ± 0.72 kg/m3. Also, the refractive index in data set [2] was found to be 1.37572 ± 0.0008.
In the case of `CCC(=O)OC` [methyl propanoate] + O, the interfacial tension is on record as 7.02 ± 0.03 mN/m in data set [3] (278.15 K); 7.55 ± 0.03 mN/m in data set [3] (288.15 K); 7.69 ± 0.03 mN/m in data set [3] (298.15 K); 7.56 ± 0.03 mN/m in data set [3] (308.15 K); 7.34 ± 0.03 mN/m in data set [3] (318.15 K); 6.63 ± 0.03 mN/m in data set [3] (328.15 K). Further, the interfacial tension in data set [3] (338.15 K) is 5.06 ± 0.03 mN/m.
